Series [1] deals with Male Sprague-Dawley rats. Put plainly: Rat forced swim test, immobility frequency. The series is classed as in vivo. Conditions: 10 mg/kg, i.p., once 24 hours prior to the swim test. The protocol:
Male Sprague-Dawley rats were placed individually in clear acrylic swim chambers (40 cm height×20.3 cm diameter) filled to 16 cm for a 15-minute pre-swim session on day 1 and filled to 30 cm for a 5-minute swim test session 24 hours later. Rats (n=10 per treatment group) were administered compound 2-1 (3, 10, 30 mg/kg, i.p., 1 mL/kg, based on weight of the free base) or vehicle (40% (w/v) 2-HPBCD in water, i.p.) at 23.5, 16 and 0.5 hours prior to the swim test. The rapid-acting antidepressant, ketamine (10 mg/kg, i.p.), was included in the study as a positive control condition and injected once 24 hours prior to the swim test.

The subject of series [2] is primary cortical rat neurons. Kind of series: Synaptogenesis assay in primary cortical rat neurons. It counts as cell-based. How it is done:
Pregnant rats for this study were purchased from a commercial breeder. Primary cortical neurons from E17/E18 rat pups were isolated and seeded in 96-well plates. Cells were treated with compound 2-2, FGF (Reference item) or vehicle. After incubation with the respective treatment, cortical neurons were stained for synapsin and tubulin using immunofluorescence.
Stained cells were imaged with the Cytation 5 Multimode reader. From each well, 9 images were taken at 10× magnification. Digital images from cortical neurons were analyzed for the following parameter using a software-supported automatic quantification method: Number of synapsin positive objects. Analysis was performed using Gen5 software. The experiment was run in n=10 technical replicates per condition. Vehicle control and FGF were included on each plate totaling n=20 technical replicates.
Primary cortical neurons were prepared from timed pregnant Spargue Dawley rats at E17/E18. Animals were sacrificed (see section 3.3.1) and embryos were dissected in Calcium and Magnesium free Hanks Balanced Salt Solution (CMF-HBSS) containing 15 mM HEPES and 10 mM NaHCO3, pH 7.2. Embryos were decapitated, skin and skull gently removed and hemispheres were separated. After removing meninges and brain stem, the cortices were isolated, chopped with a sterile razor blade in Chop solution (Hibernate-E without Calcium containing 2% B-27) and digested in 2 mg/mL papain (Worthington) dissolved in Hibernate-E without Calcium for 30 minutes (±5 min) at 30° C. The cortices of the embryos from the two rats were pooled and processed together.
Cortices were triturated for 10-15 times with a fire-polished silanized Pasteur pipette in Hibernate-E without Calcium containing 2% B-27, 0.01% DNaseI, 1 mg/mL BSA, and 1 mg/mL Ovomucoid Inhibitor. Undispersed pieces were allowed to settle by gravity for 3 min and the supernatant was centrifuged for 3 min at 228 g. […]
Cells were counted in a hemacytometer and seeded in nutrition medium on poly-D-lysine pre-coated 96-well plates at a density of 1.5×10^4 cells/well. […]

The target of series [3] is T1, 5-HT2A receptor (Mus musculus, UniProt P35363). Also on record: endogenous in cells; host or cells: adult male C57BL/6J mice, in vivo. The following applies: i.p., same assay, Klein et al., 2021; cited from earlier work.
The target of series [4] is T1, 5-HT2A receptor. Kind of series: 5-HT2A receptor binding in mouse frontal cortical tissue. The following applies: for Ki: Mean (Mouse), mouse frontal cortical tissue.
The subject of series [5] is Male WKY rats. Kind of series: Sleep-wake behavior, EEG power, body temperature and locomotor activity in WKY rats. It counts as in vivo, rat. The following applies: over 6 hours post dose, WKY rats, IP. The protocol:
Male WKY rats (n=7, 289-388 g at the start of dosing) were housed in groups of 2-3 animals per cage with standard housing conditions. For implantation of the EEG electrodes and radio transmitter, the animals were anesthetized with isoflurane (2-5% in oxygen at 11/min) throughout the procedure. The scalp, neck and right flank were cleared of hair using clippers and cleaned using diluted Hibitane (chlorhexidine, 50% (v/v) in water). A non-steroidal anti-inflammatory agent was administered (carprofen 5 mg/kg, s.c.) and the animals placed on a homeothermic blanket (37° C.) with the head fixed in a stereotaxic frame. Incisions were made in the scalp and neck, as well as in the right flank. Blunt dissection of the abdominal muscle was then made to gain access to the peritoneal cavity. A radio transmitter (HD-S02, Data Sciences International) was implanted in the peritoneal cavity and secured to the muscle wall with non-absorbable sutures. The wires of the transmitter were passed using a 19G needle through the muscle wall and then sub-dermally to the scalp to act as Electroencephalogram (EEG)/Electromyograph (EMG) electrodes. The scalp was cleared of connective tissue and two craniotomies were made with a trepanning drill (fronto-parietal coordinates; Bregma+2 mm anterior, midline+1.0 mm lateral and Lambda 0 mm, +1.5 mm lateral). The positive EEG electrode was attached to the anterior craniotomy and the negative EEG electrode to the posterior craniotomy. Both electrodes were secured in place using a suitable adhesive agent (cyanoacrylate gel, RS components). A second set of electrodes were sutured into the nuchal muscle to act as EMG electrodes. All incisions were closed using absorbable suture.
All animals were allowed to recover in a warm environment and given 5 ml of saline subcutaneously (s.c.). Animals were kept singly in the cage until the next day, then pair housed for the duration of post-surgical recovery (minimum 7 days). During the recovery period, the rats received 5 days of standard post-operative care with no further experimental procedures until the pre-operative body weight was regained. The animals were maintained on a 12/12 hour light dark cycle (08:00 am lights on) after the surgery. Home cages and post-operative cages contained bedding and nesting material, along with environmental enrichment such as wooden chew-sticks and plastic tunnels.
On test days, ˜60 minutes after lights-on, animals were placed in recording boxes similar to their home-cages, except that environmental enrichment was restricted to a large bundle of nesting and bedding material, to avoid interference with the telemeter signals. Then, data acquisition was initiated for confirmation of signal quality. EEG and EMG data were acquired using intraperitoneal HD-S02 transmitters (DSI, New Brighton, MN) and Spike2 software (CED). EEG and EMG signals were digitized 500 samples/second, amplified 1000× and bandpass filtered at 0.5-100 Hertz (Hz). After 60 minutes of habituation, each animal was briefly removed from its box and dosed via the intraperitoneal (i.p.) route in a volume of 2 mL/kg. Test conditions included saline vehicle, psilocybin (10 mg/kg) positive control, compound 2-1 at 3, 10 and 30 mg/kg and compound 2-2 at 10, 17 and 30 mg/kg. Doses were based on the molecular weight of the free bases. compound 2-1 and compound 2-2 dosing solutions were prepared in 40% (w/v) hydroxypropyl-beta-cyclodextrin. After dosing, animals were immediately put back into the recording boxes, the experimenter left the room, and recordings continued uninterrupted for 23 hours. At the end of the recording session, the transmitters were turned off and the animals were returned to their home cages. All animals received all treatment conditions in a pseudo randomized cross-over fashion with a minimum washout period of 7 days between doses.
All data was aligned to zero (the time of dosing), with epochs defined as non-overlapping 10-second time segments. […]

Series [6] addresses T2, 5-HT2A receptors in the mouse frontal cortex (Mus musculus, UniProt P35363).
T2 construct: Left frontal cortices from each animal were homogenized individually; from tissue
Put plainly: Ex vivo 5-HT2A receptor occupancy ([3H]cimbi-36) in mouse frontal cortex. The following applies: mouse, 3 mg/kg IP, 15 minutes post dosing.

The subject of series [7] is Male Sprague-Dawley rats. Put plainly: 5-HT2A/2C/1A-mediated behaviors, locomotor activity and body temperature in rats. It counts as in vivo, rat. The following applies: 1 mg/kg SC. How it is done: Forty (40) male Sprague-Dawley rats were used as test subjects in this study. Animals were dosed with vehicle (IP), one of 3 doses of compound 2-2 (3 mg/kg, 10 mg/kg, 30 mg/kg IP) or psilocybin (1 mg/kg SC) and, following the appropriate pre-treatment time, were placed in locomotor activity boxes and continuously monitored for a 1 hr period with data collected into 10-minute time bins. Animals were visually assed for overt behavioral signs, including biomarkers for 5-HT2A receptor target engagement (i.e. wet dog shakes, back muscle contractions and stereotypic behaviors), 5-HT2C receptor activation (yawning, penile grooming), and 5-HT1A behaviors (forepaw treading, hindlimb abduction). Additional behavioral and somatic signs characteristic of 5-HT syndrome (i.e. tremor, salivation, flat body posture) also were measured. Core body temperature change was determined at 0 hr (pre-dose), 1 hr, and 2 hr. Simultaneously, the spontaneous locomotor activity of the rats was measured using automated Med Associates activity test chambers. Activity data collected included total distance travelled, rearing counts, and ambulatory episodes. LMA was measured for a total of 2 hours (i.e. the first hour to include visual assessments of behavioral signs, and the second hour the animals will not be assessed for behavioral signs) with data collected into 10 minute time bins. The tracking arena measured 17″ W×17″ L×12″ H, sensor bars were secured 1″ above the floor to track distance travelled, and a second set of sensor bars were placed ˜5″ above the floor to measure vertical movement and rearing activity. The parameters set on the tracking software were as follows: resolution −50 ms, box size −4 beams, resting delay −500 ms, and ambulatory trigger −3.
Table 14 outlines receptor activity and related behavioral and/or physiological measures.

T1 sequence (P35363 whole entry): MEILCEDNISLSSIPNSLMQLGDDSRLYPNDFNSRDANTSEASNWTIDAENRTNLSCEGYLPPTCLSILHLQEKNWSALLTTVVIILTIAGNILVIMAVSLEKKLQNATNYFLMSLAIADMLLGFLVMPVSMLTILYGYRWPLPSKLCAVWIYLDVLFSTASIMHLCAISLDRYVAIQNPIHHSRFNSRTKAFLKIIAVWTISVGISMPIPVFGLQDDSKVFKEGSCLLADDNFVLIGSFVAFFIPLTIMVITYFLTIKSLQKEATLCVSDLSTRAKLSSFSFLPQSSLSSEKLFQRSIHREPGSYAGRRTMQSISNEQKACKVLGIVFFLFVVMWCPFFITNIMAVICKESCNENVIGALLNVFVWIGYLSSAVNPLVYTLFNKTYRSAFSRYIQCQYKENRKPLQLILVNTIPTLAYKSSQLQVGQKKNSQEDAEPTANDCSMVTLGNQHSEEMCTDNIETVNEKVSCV
T2 sequence (P35363 whole entry): as above

In the case of `CNC1(c2ccccc2Cl)CCCCC1=O` (stereo not drawn) [Ketamine, ketamine, reference compound], the “immobility compared to vehicle” value in series [1] is reported as “significantly decreased”.
Consider `CN(C)CCc1c[nH]c2ccccc12` [N,N-DMT], for which the “synaptogenesis compared to VC (synapsin positive objects normalized to tubulin III area)” value is on record as “significant increase” in series [2] (1 μM (highest concentration), DIV1-DIV10) and “no significance” in series [2] (lower concentrations (below 1 μM)).
Take `CN(C)CCc1c[nH]c2cccc(O)c12` [Psilocin, psilocin]: the “HTR ED50” value in series [3] was 0.17 mg/kg. The IC50 in series [4] turned out to be 99 nM. Further, the figures for the Ki in series [4] (Ki) and in series [4] (pKi) were 45.1 nM and 45.7 nM, respectively.
`CN(C)CCc1c[nH]c2cccc(OP(=O)(O)O)c12` [Psilocybin, psilocybin, reference compound]: the body temperature entry in series [5] was “↓(for 6 h)”. In series [6] (read-out: % Receptor Occupancy (RO)), the receptor occupancy at 3 mg/kg came out at 19%. Besides, the remaining activity at 3 mg/kg in series [6] (read-out: % of Control Binding) came to 81%. Also, in series [7], the “distance travelled during the first 20 minutes of the 2 hour test” value is “decreased” and the “total locomotor activity measures” value was “did not affect”.

Source of the values: patent US12343319B2, “Compositions and methods for treatment of diseases and disorders” (Atai Therapeutics Inc., priority 2023, dated 2025).
